Results as given in patent US10844013B2, “Phenyl amino piperidine mTORC inhibitors and uses thereof” (Navitor Pharmaceuticals, Inc., priority 2016, dated 2020).
Like-named read-outs stand apart in the source and are kept apart here.

Experiments:
[1] = test system: pAKT (p-Akt 1/2/3 (Ser473)) in MCF-7 cells; test: AlphaLISA Ultra pAKT assay; format: cell-based
Experimental: Example 156: AlphaLISA Ultra pAKT Assay
(§1) Assay Protocol: • 1. MCF-7 cells in Corning 3701 plate and incubate for 20-24 hour. 16,000-20,000 cells will be seeded in 36 μL medium per well. • 2. Change the culture medium with fresh medium and incubate for another 2 hours. • 3. Add 12 μL (4×) compounds into the cell plate by HAMILTON. Final DMSO concentration is 0.5%. Incubate for 2 hours. • 4. Aspirate 38 j L by HAMILTON, 10 μL rest per well. • 5. Add 10 μL 2× lysis buffer using HAMILTON; total volume in wells is 20 μL. Allow cells to shake for 30 min. Cover plate by plastic foil and store plate at −80° C. up to analysis. • 6. Thaw cell lysate at RT and transfer 10 ul lysate to assay plate (Optiplate-384). • 7. Add 5 ul acceptor beads into assay plate and incubation for 2 hours • 8. Add 5 ul donor beads and incubation for 2 hours • 9. Count the plate by EnSpire Multimode Plate Reader

[2] = test system: pS6K1 (p-p70 S6 Kinase (Thr389)) in MCF-7 cells; test: AlphaLISA Ultra pS6K1 assay; format: cell-based; conditions: 2 hours compound incubation
Experimental: Example 155: AlphaLISA Ultra pS6K1 assay
as §1, with “1. Seed” for “1.”, “20˜24” for “20-24”, “12,000˜16,000” for “16,000-20,000”, “μL” for “j L”

[3] = Homo sapiens, MCF7, 2 hours compound incubation
[4] = 2 hours compound incubation, read-out: pAKT in MCF7: IC50

Row | Structure (SMILES) | IC50 [1, 3] [nM] | IC50 ([2]; Homo sapiens, MCF7, 2 h) [nM] | IC50 [1, 4] [nM] | IC50 ([2]; read-out: pS6K1 in MCF7: IC50) [nM]
1 | Cc1cc(C)c(C(=O)N2CCN(c3ccc(F)cn3)[C@H](CO)C2)c(C)c1NC1CCN(c2cccnn2)CC1 [I-161, [(2S)-1-(5-fluoropyridin-2-yl)-4-(2,4,6-trimethyl-3-{[1-(pyridazin-3-yl)piperidin-4-yl]amino}benzoyl)piperazin-2-yl]MeOH] | > 10000 | 10 to 1000 | – | –
2 | Cc1ccc(C(=O)N2CCN(c3ccccc3)C(CO)C2)cc1NC1CCN(c2ccccc2C#N)CC1 (single isomer, unassigned) [I-85, 2-[4-({5-[(3S or R)-3-(hydroxymethyl)-4-phenylpiperazine-1-carbonyl]-2-methylphenyl}amino)piperidin-1-yl]benzonitrile] | – | – | > 10000 | 10 to 1000
3 | Cc1cc(C)c(C(=O)N2CCN(c3ccccc3C#N)CC2)cc1NC1CCN(c2ccccc2)CC1 [I-56] | > 10000 | 1000 to 3000 | – | –
4 | Cc1cc(C)c(C(=O)N2CCN(c3ccccc3)[C@@H](CO)C2)cc1NC1CCN(c2ccccc2C#N)CC1 (single isomer, unassigned) [I-41, 2-[4-({5-[3R or S-(hydroxymethyl)-4-phenylpiperazine-1-carbonyl]-2,4-dimethylphenyl}amino)piperidin-1-yl]benzonitrile] | > 10000 | 1000 to 3000 | – | –
5 | Cc1cc(C)c(C(=O)N2CCN(c3ccccc3)[C@@H](C(C)(C)O)C2)cc1NC1CCN(c2ccccc2C#N)CC1 [I-21] | > 10000 | 3000 to 5000 | – | –
6 | Cc1cc(C)c(C(=O)N2CCN(c3cccnc3S(N)(=O)=O)CC2)c(C)c1NC1CCN(c2ncccc2Cl)CC1 [I-185, 3-(4-(3-(1-(3-chloropyridin-2-yl)piperidin-4-ylamino)-2,4,6-trimethylbenzoyl)piperazin-1-yl)pyridine-2-sulfonamide] | > 10000 | 10 to 1000 | – | –
7 | Cc1cc(C)c(C(=O)N2CCN(c3ccccc3C#N)CC2)cc1NC1CCN(c2ccccc2C#N)CC1 [I-71, 2-[4-({5-[4-(2-Cyanophenyl)piperazine-1-carbonyl]-2,4-dimethylphenyl}amino)piperidin-1-yl]benzonitrile] | > 10000 | 10 to 1000 | – | –
8 | Cc1cc(C)c(C(=O)N2CCN(c3ccccc3S(C)(=N)=O)CC2)nc1NC1CCN(c2ccccc2C#N)CC1 (single isomer, unassigned) [I-126, 2-(4-(3,5-Dimethyl-6-(4-(2-(S-methylsulfonimidoyl)phenyl)piperazine-1-carbonyl)pyridin-2-ylamino)piperidin-1-yl)benzonitrile] | > 10000 | 10 to 1000 | – | –
9 | Cc1cc(C)c(C(=O)N2CCN(c3cccc(F)c3[S@](C)(=N)=O)C[C@@H]2C)c(C)c1NC1CCN(c2ccccc2C#N)CC1 [I-190, 2-(4-(3-((S)-4-(3-fluoro-2-((R)-S-methylsulfonimidoyl)phenyl)-2-methylpiperazine-1-carbonyl)-2,4,6-trimethylphenylamino)piperidin-1-yl)benzonitrile] | > 10000 | 10 to 1000 | – | –
10 | Cc1cc(C)c(C(=O)N2CCN(c3ncccc3[S@](C)(=N)=O)CC2)cc1NC1CCN(c2ccccc2C#N)CC1 (single isomer, unassigned) [I-93] | > 10000 | 1000 to 3000 | – | –
11 | Cc1cc(C)c(C(=O)N2CCN(c3ccccn3)[C@H](CO)C2)cc1NC1CCN(c2ccccc2C#N)CC1 (single isomer, unassigned) [I-38, 2-[4-({5-[(3S or 3R)-3-(hydroxymethyl)-4-(pyridin-2-yl)piperazine-1-carbonyl]-2,4-dimethylphenyl}amino)piperidin-1-yl]benzonitrile] | > 10000 | 3000 to 5000 | – | –
12 | Cc1cc(C)c(C(=O)N2CCN(c3ccc(F)cn3)[C@H](CO)C2)c(C)c1NC1CCN(c2ncccn2)CC1 [I-151, [(2S)-1-(5-Fluoropyridin-2-yl)-4-(2,4,6-trimethyl-3-{[1-(pyrimidin-2-yl)piperidin-4-yl]amino}benzoyl)piperazin-2-yl]methanol] | > 10000 | 10 to 1000 | – | –
13 | Cc1cc(C)c(C(=O)N2CCN(c3ccccc3)C(C(N)=O)C2)cc1NC1CCN(c2ccccc2C#N)CC1 (stereo not shown) [I-31, 4-(5-{[1-(2-cyanophenyl)piperidin-4-yl]amino}-2,4-dimethylbenzoyl)-1-phenylpiperazine-2-carboxamide] | > 10000 | 10 to 1000 | – | –
14 | CCN(c1cc(C(=O)N2CCN(c3ccccc3S(N)(=O)=O)CC2)c(C)cc1C)C1CCN(c2ccccc2C#N)CC1 [I-51, 2-(4-(5-((1-(2-Cyanophenyl)piperidin-4-yl)(ethyl)amino)-2,4-dimethylbenzoyl)piperazin-1-yl)benzenesulfonamide] | > 10000 | 1000 to 3000 | – | –
15 | Cc1cc(C)c(C(=O)N2CCN(c3ccccc3C#N)[C@@H](CO)C2)cc1NC1CCN(c2ccccc2C#N)CC1 [I-53] | > 10000 | 10 to 1000 | – | –
16 | Cc1cc(C)c(C(=O)N2CCN(c3ccccc3)[C@H](C(N)=O)C2)c(C)c1NC1CCN(c2cccnn2)CC1 [I-164, (2S)-1-Phenyl-4-(2,4,6-trimethyl-3-{[1-(pyridazin-3-yl)piperidin-4-yl]amino}benzoyl)piperazine-2-carboxamide] | > 10000 | 10 to 1000 | – | –
17 | Cc1cc(C)c(C(=O)N2CCN(c3ccccc3S(C)(=N)=O)CC2)cc1NC1CCN(c2ccccc2C#N)CC1 (stereo not shown) [I-62, 2-(4-{[5-(4-{2-[imino(methyl)oxo-λ^6-sulfanyl]phenyl}piperazine-1-carbonyl)-2,4-dimethylphenyl]amino}piperidin-1-yl)benzonitrile] | > 10000 | 10 to 1000 | – | –
18 | Cc1cc(C)c(C(=O)N2CCN(c3ccccc3S(C)(=N)=O)CC2)cc1NC1CCN(c2ccccc2C#N)CC1 (single isomer, unassigned) [I-50, 2-(4-{[5-(4-{2-[(R or S)-imino(methyl)oxo-λ^6-sulfanyl]phenyl}piperazine-1-carbonyl)-2,4-dimethylphenyl]amino}piperidin-1-yl)benzonitrile] | – | – | > 10000 | 1000 to 3000
19 | Cc1cc(C)c(C(=O)N2CCN(c3cccc(F)c3S(=O)(=O)N=C(N(C)C)N(C)C)CC2)cc1NC1CCN(c2ccccc2C#N)CC1 [I-19, 2-{2-[4-(5-{[1-(2-cyanophenyl)piperidin-4-yl]amino}-2,4-dimethylbenzoyl)piperazin-1-yl]-6-fluorobenzenesulfonyl}-1,1,3,3-tetramethylguanidine] | > 10000 | 1000 to 3000 | – | –
20 | Cc1cc(C)c(C(=O)N2CCN(c3ccccc3C#N)CC2)cc1NC1CCN(c2ccccc2Cl)CC1 [I-37, 2-(4-(5-(1-(2-Chlorophenyl)piperidin-4-ylamino)-2,4-dimethylbenzoyl)piperazin-1-yl)benzonitrile] | > 10000 | 1000 to 3000 | – | –
21 | Cc1cc(C)c(C(=O)N2CCN(c3ncccc3S(N)(=O)=O)CC2)c(C)c1N[C@H]1CCN(c2ccccc2C#N)C[C@H]1C [I-178, 2-(4-(3-(((3R,4S)-1-(2-cyanophenyl)-3-methylpiperidin-4-yl)amino)-2,4,6-trimethylbenzoyl)piperazin-1-yl)pyridine-3-sulfonamide] | > 10000 | 10 to 1000 | – | –
22 | Cc1nc(C)c(C(=O)N2CCN(c3ccccc3C#N)CC2)cc1NC1CCN(c2ccccc2C#N)CC1 [I-13, 2-(4-(5-(4-(2-Cyanophenyl)piperazine-1-carbonyl)-2,6-dimethylpyridin-3-ylamino)piperidin-1-yl)benzonitrile] | > 10000 | 3000 to 5000 | – | –
23 | Cc1cc(C)c(C(=O)N2CCN(c3ccccc3S(N)(=O)=O)CC2)c(C)c1NC1CCN(c2ccccc2C#N)CC1 [I-42] | > 10000 | 10 to 1000 | – | –
24 | Cc1nc(C)c(C(=O)N2CCN(c3ccccc3)[C@H](CO)C2)c(C)c1NC1CCN(c2c(F)cccc2C#N)CC1 [I-153, 3-fluoro-2-[4-({5-[(3S)-3-(hydroxy-methyl)-4-phenyl-piperazine-1-carbonyl]-2,4,6-trimethyl-pyridin-3-yl}amino)piperidin-1-yl] benzonitrile] | > 10000 | 10 to 1000 | – | –
25 | Cc1ccc(NC2CCN(c3ccccc3C#N)CC2)c(C)c1C(=O)N1CCN(c2cccc(F)c2S(N)(=O)=O)CC1 [I-87, 2-(4-(3-(1-(2-cyanophenyl)piperidin-4-ylamino)-2,6-dimethylbenzoyl)piperazin-1-yl)-6-fluorobenzenesulfonamide] | > 10000 | 1000 to 3000 | – | –
26 | Cc1cc(C)c(C(=O)N2CCN(c3ccccc3S(N)(=O)=O)CC2)cc1NC1CCN(c2ccccc2C#N)CC1(C)C (stereo not shown) [I-52, 2-(4-(5-(1-(2-Cyanophenyl)-3,3-dimethylpiperidin-4-ylamino)-2,4-dimethylbenzoyl)piperazin-1-yl)benzenesulfonamide] | > 10000 | > 10000 | – | –
